Experimental data from ChEMBL document CHEMBL1158432, “A novel photoaffinity ligand for the dopamine transporter based on pyrovalerone” (Bioorg Med Chem, 2009).
Activity calls are given as the source filed them. No cut-off for these calls is given here.

Columns and labels:
Format in all cases: cell-based
[1] = biological target: T1, Sodium-dependent dopamine transporter (Homo sapiens, UniProt Q01959); experiment: Inhibition of [3H]dopamine uptake at human dopamine transporter expressed in mouse N2A cells by scintillation counting
T1 sequence (Q01959 whole entry): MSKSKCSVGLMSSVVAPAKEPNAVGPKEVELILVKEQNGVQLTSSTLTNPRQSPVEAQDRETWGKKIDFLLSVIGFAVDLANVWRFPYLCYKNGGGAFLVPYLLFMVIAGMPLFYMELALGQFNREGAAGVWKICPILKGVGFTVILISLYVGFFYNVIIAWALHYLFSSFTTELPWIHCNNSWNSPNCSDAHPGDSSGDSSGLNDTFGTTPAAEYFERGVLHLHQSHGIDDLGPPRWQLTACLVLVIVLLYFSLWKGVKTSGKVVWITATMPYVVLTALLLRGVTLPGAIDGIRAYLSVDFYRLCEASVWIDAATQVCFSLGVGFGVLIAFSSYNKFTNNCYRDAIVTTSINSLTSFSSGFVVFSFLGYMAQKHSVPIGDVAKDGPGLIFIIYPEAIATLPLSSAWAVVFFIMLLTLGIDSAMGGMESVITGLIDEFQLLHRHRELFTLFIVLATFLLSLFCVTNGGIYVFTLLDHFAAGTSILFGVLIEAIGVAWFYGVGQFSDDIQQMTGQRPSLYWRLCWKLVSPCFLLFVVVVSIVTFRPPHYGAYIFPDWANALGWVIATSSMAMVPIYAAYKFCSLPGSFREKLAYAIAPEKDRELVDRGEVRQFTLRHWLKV

[2] = biological target: T1, Sodium-dependent dopamine transporter; experiment: Displacement of [3H]WIN-35428 from human dopamine transporter expressed in mouse N2A cells by scintillation counting
[3] = biological target: Sodium-dependent dopamine transporter (Rattus norvegicus) (UniProt P23977); experiment: Binding affinity to rat dopamine transporter expressed in pig LLC-PK1 cells assessed as drug incorporation at 30 nM after 1 hr by SDS-PAGE analysis in presence of cocaine; conditions: tested as the 125I-labelled form
Sequence of Sodium-dependent dopamine transporter (Rattus norvegicus) (P23977 whole entry): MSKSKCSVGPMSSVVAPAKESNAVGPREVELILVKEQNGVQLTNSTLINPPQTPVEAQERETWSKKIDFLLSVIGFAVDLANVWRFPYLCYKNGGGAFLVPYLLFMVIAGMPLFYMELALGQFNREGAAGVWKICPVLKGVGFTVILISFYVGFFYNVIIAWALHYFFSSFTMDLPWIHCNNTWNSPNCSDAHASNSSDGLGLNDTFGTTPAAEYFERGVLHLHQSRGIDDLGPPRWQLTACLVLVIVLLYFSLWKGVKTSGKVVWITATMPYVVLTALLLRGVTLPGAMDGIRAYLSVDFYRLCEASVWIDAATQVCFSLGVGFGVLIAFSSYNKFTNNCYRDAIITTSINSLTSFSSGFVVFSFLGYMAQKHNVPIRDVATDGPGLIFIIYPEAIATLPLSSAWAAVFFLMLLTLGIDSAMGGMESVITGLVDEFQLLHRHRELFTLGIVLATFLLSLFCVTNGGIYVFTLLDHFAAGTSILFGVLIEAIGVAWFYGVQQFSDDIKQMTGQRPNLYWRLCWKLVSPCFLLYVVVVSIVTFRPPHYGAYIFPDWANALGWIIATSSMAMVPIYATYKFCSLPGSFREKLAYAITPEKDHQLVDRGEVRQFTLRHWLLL

[4] = biological target: Sodium-dependent dopamine transporter (Rattus norvegicus) (UniProt P23977); experiment: Binding affinity to rat dopamine transporter expressed in pig LLC-PK1 cells assessed as drug incorporation at 30 nM after 1 hr by SDS-PAGE analysis; conditions: tested as the 125I-labelled form

Structure (SMILES)	IC50 [1] [nM]	Ki [2] [nM]	Activity [3]	Activity [4]
CCCC(C(=O)c1ccc(C)cc1)N1CCCC1 (stereo not given) [PYROVALERONE]	32	8	–	–
CCCC(C(=O)c1ccc(N)c(I)c1)N1CCCC1 (stereo not given)	175	28	–	–
CCCC(C(=O)c1ccc(N=[N+]=[N-])c(I)c1)N1CCCC1 (stereo not given)	264	78	inactive	Active
CCCC(C(=O)c1ccc(N)cc1)N1CCCC1 (stereo not given)	7	5	–	–
